The values below are quoted from earlier work in patent publication EP2117510B1, “PARENTERAL PHARMACEUTICAL COMPOSITION AND METHOD FOR PREPARING THE SAME” (Physica Pharma, priority 2007, dated 2008).

For this series the following is noted: water, room temperature (environ 22° C).

With `CC(C)c1cccc(C(C)C)c1O` [Propofol, 2,6-diisopropylphénol], the “solubilité dans l'eau” value is about 160 µg/mL.
